Where two headings read alike, the source gives them in different places.
Key:
[1] = tested on: T. gondii RH strain (RH-Tub-eYFP) tachyzoites; assay: microbe, parasite or virus in culture; format: cell-based, Toxoplasma gondii; conditions: 72 h; for percent parasite growth at 2 µg/mL: Toxoplasma gondii
[2] = tested on: P. falciparum 3D7 parasites; assay: P. falciparum growth inhibition assay, 1-cycle (72 h treatment), SYBR DNA staining (library screen at 2 μg/mL and dose-response); format: cell-based, Plasmodium falciparum; conditions: for activity at 2 µg/mL: Plasmodium falciparum, 3D7, 72 h
[3] = tested on: P. falciparum 3D7 parasites; assay: P. falciparum growth inhibition assay, 2-cycle (120 h treatment), delayed-death screen and dose-response; format: cell-based, Plasmodium falciparum; conditions: for activity at 2 µg/mL: Plasmodium falciparum, 3D7, 120 h
[4] = T. gondii, parasite screen at 2 μg/mL, % growth, replicate 1
[5] = T. gondii, parasite screen at 2 μg/mL, % growth, replicate 2
[6] = P. falciparum 3D7, 72 h, parasite screen at 2 μg/mL, % growth, replicate 1
[7] = P. falciparum 3D7, 72 h, parasite screen at 2 μg/mL, % growth, replicate 2
[8] = P. falciparum 3D7, 120 h, parasite screen at 2 μg/mL, % growth, replicate 1
[9] = P. falciparum 3D7, 120 h, parasite screen at 2 μg/mL, % growth, replicate 2
[10] = T. gondii, parasite screen 2 μg/mL, % growth, replicate 1
[11] = T. gondii, parasite screen 2 μg/mL, % growth, replicate 2
[12] = P. falciparum, 72 h, parasite screen 2 μg/mL, % growth, replicate 1
[13] = P. falciparum, 72 h, parasite screen 2 μg/mL, % growth, replicate 2
[14] = P. falciparum, 120 h, parasite screen 2 μg/mL, % growth, replicate 1
[15] = P. falciparum, 120 h, parasite screen 2 μg/mL, % growth, replicate 2

CN(C)[C@@H]1C(=O)C(C(=O)NCN2CCN(CCO)CC2)=C(O)[C@@]2(O)C(=O)C3=C(O)c4c(O)cccc4[C@@](C)(O)[C@H]3C[C@@H]12 [BIA-P1473]
Tg_72h_%Growth_Rep1 [1, 4]: 118.64%
Tg_72h_%Growth_Rep2 [1, 5]: 93.61%
Pf_72h_%Growth_Rep1 [2, 6]: 83.77%
Pf_72h_%Growth_Rep2 [2, 7]: 98.47%
Pf_120h_%Growth_Rep1 [3, 8]: 88.47%
Pf_120h_%Growth_Rep2 [3, 9]: 132.29%

COc1ccc(Cl)c(C)c1C(=O)O[C@@H]1C[C@H](O[C@H]2[C@H](O)C[C@H](O[C@H]3CCC[C@@H]4[C@@H]3C=C[C@H]3CCCC/C=C/[C@@H]5C=C(C(=O)O)[C@H](C)C[C@]56OC(=O)C(=C6O)OC(=O)[C@@]43C)O[C@@H]2C)O[C@H](C)[C@H]1O [Chlorothricin]
Tg_72h_%Growth_Rep1 ([1]; T. gondii, screen at 2 μg/mL, replicate 1): 75.08%
Tg_72h_%Growth_Rep2 ([1]; T. gondii, screen at 2 μg/mL, replicate 2): 94.25%
Pf_72h_%Growth_Rep1 ([2]; P. falciparum, 72 h, screen at 2 μg/mL, replicate 1): 106.01%
Pf_72h_%Growth_Rep2 ([2]; P. falciparum, 72 h, screen at 2 μg/mL, replicate 2): 86.61%
Pf_120h_%Growth_Rep1 ([3]; P. falciparum, 120 h, screen at 2 μg/mL, replicate 1): 151.59%
Pf_120h_%Growth_Rep2 ([3]; P. falciparum, 120 h, screen at 2 μg/mL, replicate 2): 96.98%

OC[C@H]1O[C@@H](n2cnc3c2N=CNC[C@H]3O)C[C@@H]1O [BIA-P1273]
Tg_72h_%Growth_Rep1 [1, 4]: 120.62%
Tg_72h_%Growth_Rep2 [1, 5]: 91.66%
Pf_72h_%Growth_Rep1 [2, 6]: 69.65%
Pf_72h_%Growth_Rep2 [2, 7]: 72.25%
Pf_120h_%Growth_Rep1 [3, 8]: 57.41%
Pf_120h_%Growth_Rep2 [3, 9]: 140.11%

CCCCC[C@@H]1CCCCC[C@@H](O)C[C@H](O)[C@H](O)/C=C/C(=O)O1 [Sch 725674]
Tg_72h_%Growth_Rep1 [1, 10]: 110.92%
Tg_72h_%Growth_Rep2 [1, 11]: 69.04%
Pf_72h_%Growth_Rep1 [2, 12]: 94.68%
Pf_72h_%Growth_Rep2 [2, 13]: 136.05%
Pf_120h_%Growth_Rep1 [3, 14]: 118.17%
Pf_120h_%Growth_Rep2 [3, 15]: 96.28%

C=C1CC[C@H]2C(C)(C)CCC[C@]2(C)[C@H]1C[C@@]12C[C@H]3C(=O)N4CCC=C4C(=O)N3[C@@H]1Nc1ccccc12 [Drimentine B]
Tg_72h_%Growth_Rep1 ([1]; library screen at 2 μg/mL, % growth, replicate 1): 108.85%
Tg_72h_%Growth_Rep2 ([1]; library screen at 2 μg/mL, % growth, replicate 2): 84.36%
Pf_72h_%Growth_Rep1 ([2]; library screen at 2 μg/mL, 72 h, % growth, replicate 1): 74.87%
Pf_72h_%Growth_Rep2 ([2]; library screen at 2 μg/mL, 72 h, % growth, replicate 2): 73.00%
Pf_120h_%Growth_Rep1 ([3]; library screen at 2 μg/mL, 120 h, % growth, replicate 1): 84.09%
Pf_120h_%Growth_Rep2 ([3]; library screen at 2 μg/mL, 120 h, % growth, replicate 2): 80.10%

C=C1[C@@H](C)[C@H]2[C@H](Cc3ccccc3)NC(=O)[C@]23OC(=O)/C=C/[C@H](O)CCC[C@@H](C)C/C=C/[C@H]3[C@@H]1O [Cytochalasin B]
percent parasite growth at 2 µg/mL ([1]; T. gondii, screen at 2 μg/mL, replicate 1, read-out: Tg_72h_%Growth_Rep1): 31.3%
percent parasite growth at 2 µg/mL ([1]; T. gondii, screen at 2 μg/mL, replicate 2, read-out: Tg_72h_%Growth_Rep2): 60.5%
activity at 2 µg/mL ([2]; P. falciparum, 72 h, screen at 2 μg/mL, replicate 1, read-out: Pf_72h_%Growth_Rep1): 8.23%
activity at 2 µg/mL ([2]; P. falciparum, 72 h, screen at 2 μg/mL, replicate 2, read-out: Pf_72h_%Growth_Rep2): 10.3%
activity at 2 µg/mL ([3]; P. falciparum, 120 h, screen at 2 μg/mL, replicate 1, read-out: Pf_120h_%Growth_Rep1): -1.09%
activity at 2 µg/mL ([3]; P. falciparum, 120 h, screen at 2 μg/mL, replicate 2, read-out: Pf_120h_%Growth_Rep2): 8.72%

C=C(NC(=O)C(=C)NC(=O)c1csc(C2=N[C@@H]3c4csc(n4)[C@H]4NC(=O)c5csc(n5)[C@H]([C@](C)(O)[C@@H](C)O)NC(=O)[C@H]5CSC(=N5)/C(=C/C)NC(=O)[C@H]([C@@H](C)O)NC(=O)c5csc(n5)[C@]3(CC2)NC(=O)[C@H](C)NC(=O)C(=C)NC(=O)C(=C)NC(=O)[C@H](C(C)C)N[C@@H]2C=Cc3c([C@H](C)O)cc(nc3[C@H]2O)C(=O)O[C@@H]4C)n1)C(N)=O [Siomycin A]
Tg_72h_%Growth_Rep1 [1, 10]: 94.53%
Tg_72h_%Growth_Rep2 [1, 11]: 80.70%
Pf_72h_%Growth_Rep1 [2, 12]: 88.11%
Pf_72h_%Growth_Rep2 [2, 13]: 105.15%
Pf_120h_%Growth_Rep1 [3, 14]: 88.55%
Pf_120h_%Growth_Rep2 [3, 15]: 55.07%

C[C@@H]1CC[C@H](O)/C=C/C(=O)O[C@H](C)CC[C@H](O)/C=C/C(=O)O1 [Pyrenophorol]
Tg_72h_%Growth_Rep1 [1, 10]: 105.85%
Tg_72h_%Growth_Rep2 [1, 11]: 74.43%
Pf_72h_%Growth_Rep1 [2, 12]: 90.24%
Pf_72h_%Growth_Rep2 [2, 13]: 103.36%
Pf_120h_%Growth_Rep1 [3, 14]: 102.30%
Pf_120h_%Growth_Rep2 [3, 15]: 75.99%

Cn1c(=O)/c(=C/c2ccccc2)[nH]c(=O)/c1=C/c1ccccc1 [BIA-P1156]
Tg_72h_%Growth_Rep1 [1, 4]: 116.90%
Tg_72h_%Growth_Rep2 [1, 5]: 94.03%
Pf_72h_%Growth_Rep1 [2, 6]: 84.26%
Pf_72h_%Growth_Rep2 [2, 7]: 90.89%
Pf_120h_%Growth_Rep1 [3, 8]: 81.04%
Pf_120h_%Growth_Rep2 [3, 9]: 137.39%

COc1cc2c(oc(=O)c3cc(C)cc(OC)c32)c2c([C@H]3O[C@@H]([C@@H](C)O)[C@H](O)[C@H]3O)ccc(O)c12 [BIA-G1034]
Tg_72h_%Growth_Rep1 ([1]; T. gondii RH, library screen at 2 μg/mL, % growth, replicate 1): 123.33%
Tg_72h_%Growth_Rep2 ([1]; T. gondii RH, library screen at 2 μg/mL, % growth, replicate 2): 101.31%
Pf_72h_%Growth_Rep1 ([2]; P. falciparum 3D7, 72 h, library screen at 2 μg/mL, % growth, replicate 1): 90.69%
Pf_72h_%Growth_Rep2 ([2]; P. falciparum 3D7, 72 h, library screen at 2 μg/mL, % growth, replicate 2): 120.87%
Pf_120h_%Growth_Rep1 ([3]; P. falciparum 3D7, 120 h, library screen at 2 μg/mL, % growth, replicate 1): 90.16%
Pf_120h_%Growth_Rep2 ([3]; P. falciparum 3D7, 120 h, library screen at 2 μg/mL, % growth, replicate 2): 122.56%
